Source: BigSolDB 2.1

CC(=O)c1c(C)c2cnc(Nc3ccc(N4CCNCC4)cn3)nc2n(C2CCCC2)c1=O
solubility (mole fraction)
Settings | 293.15 K | 298.15 K | 303.15 K | 308.15 K | 313.15 K | 318.15 K | 323.15 K | 328.15 K | 333.15 K
in DMF | 6.17e-05 | 8.25e-05 | 0.000103 | 0.000131 | 0.000166 | 0.000202 | 0.000246 | 0.000293 | 0.000351
in DMSO | 6.57e-05 | 7.82e-05 | 9.62e-05 | 0.00012 | 0.000146 | 0.000172 | 0.000198 | 0.000246 | 0.000302
in THF | 7.14e-05 | 9.81e-05 | 0.000143 | 0.000189 | 0.00025 | 0.000329 | 0.000417 | 0.000536 | 0.000696
in acetone | 5.73e-05 | 7.32e-05 | 9.12e-05 | 0.000111 | 0.000138 | 0.000165 | 0.000199 | 0.000238 | 0.000278
in anisole | 1.32e-05 | 1.41e-05 | 1.51e-05 | 1.67e-05 | 1.79e-05 | 1.87e-05 | 1.98e-05 | 2.02e-05 | 2.17e-05
in chlorobenzene | 3.96e-05 | 5.28e-05 | 6.9e-05 | 8.91e-05 | 0.000116 | 0.000148 | 0.000189 | 0.000239 | 0.000302
in ethanol | 2.11e-05 | 2.66e-05 | 3.03e-05 | 3.61e-05 | 4.12e-05 | 4.81e-05 | 5.6e-05 | 6.41e-05 | 7.27e-05
in ethyl acetate | 1.44e-05 | 1.6e-05 | 2.06e-05 | 2.4e-05 | 3.08e-05 | 3.63e-05 | 4.42e-05 | 5.13e-05 | 5.98e-05
in m-xylene | 3.74e-05 | 4.12e-05 | 5.23e-05 | 6.44e-05 | 8.24e-05 | 9.8e-05 | 0.000119 | 0.000147 | 0.000171
in methanol | 1.1e-05 | 1.43e-05 | 1.97e-05 | 2.54e-05 | 3.43e-05 | 4.52e-05 | 5.71e-05 | 7.15e-05 | 9.01e-05
in o-xylene | 3.21e-05 | 3.62e-05 | 4.29e-05 | 4.88e-05 | 5.57e-05 | 6.38e-05 | 7.18e-05 | 8.16e-05 | 9.67e-05
in pyridine | 9.37e-05 | 0.000111 | 0.000127 | 0.000142 | 0.000159 | 0.000177 | 0.000196 | 0.000215 | 0.000236
in toluene | 4.72e-05 | 5.67e-05 | 6.78e-05 | 8.01e-05 | 9.44e-05 | 0.00011 | 0.000129 | 0.000152 | 0.000178
in water | 9.4e-06 | 1.18e-05 | 1.35e-05 | 1.7e-05 | 2.11e-05 | 2.52e-05 | 3.01e-05 | 3.63e-05 | 4.34e-05
